According to ChEMBL document CHEMBL1141367, “Substituted 2-[(4-aminomethyl)phenoxy]-2-methylpropionic acid PPARalpha agonists. 1. Discovery of a novel series of potent HDLc raising agents” (J Med Chem, 2007):

Key:
Mus musculus [1] = test: Increase in HDL cholesterol level in human Apo-A-I transgenic C57BL/6 mouse at 0.5 mg/kg, po; assay type: functional
Mus musculus [2] = test: Decrease in LDL cholesterol level in human Apo-A-I transgenic C57BL/6 mouse at 0.5 mg/kg, po; assay type: functional; set-up: scale not given: the % may be the effect or the level left
Canis familiaris = test: Plasma concentration in Beagle dog at 3 mg/kg, po; assay type: ADME, organism-based, Canis lupus familiaris; set-up: dose 3 mg/kg, route oral; conditions: in vivo
Mus musculus [3] = test: Decrease in VLDL cholesterol in human Apo-A-I transgenic C57BL/6 mouse at 0.5 mg/kg, po; assay type: functional; set-up: scale not given: the % may be the effect or the level left
[4] = molecular target: T1, Peroxisome proliferator-activated receptor gamma (Homo sapiens, UniProt P37231); assay type: functional, cell-based, CV-1
T1 sequence (P37231 whole entry): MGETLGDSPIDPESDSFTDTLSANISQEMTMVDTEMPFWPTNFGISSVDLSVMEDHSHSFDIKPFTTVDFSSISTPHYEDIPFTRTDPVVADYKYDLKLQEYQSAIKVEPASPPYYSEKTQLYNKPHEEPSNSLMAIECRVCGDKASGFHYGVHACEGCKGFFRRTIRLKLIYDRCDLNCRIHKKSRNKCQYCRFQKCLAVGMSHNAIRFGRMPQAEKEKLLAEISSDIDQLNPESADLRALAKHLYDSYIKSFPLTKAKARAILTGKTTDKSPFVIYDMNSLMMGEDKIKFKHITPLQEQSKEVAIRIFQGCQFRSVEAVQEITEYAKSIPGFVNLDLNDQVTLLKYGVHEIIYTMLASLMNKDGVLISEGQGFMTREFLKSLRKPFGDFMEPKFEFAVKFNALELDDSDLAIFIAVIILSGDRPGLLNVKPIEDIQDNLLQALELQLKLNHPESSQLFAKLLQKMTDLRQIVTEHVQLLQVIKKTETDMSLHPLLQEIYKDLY
Description: Agonist potency at PPARgamma in CV1 cells by cell based transient transfection assay

Mus musculus [5] = test: Increase in HDL cholesterol level in human Apo-A-I transgenic C57BL/6 mouse at 1 mg/kg, po; assay type: functional
Mus musculus [6] = test: Decrease in VLDL cholesterol in human Apo-A-I transgenic C57BL/6 mouse at 5 mg/kg, po; assay type: functional; set-up: scale not given: the % may be the effect or the level left
[7] = Plasma concentration in Wistar rat at 3 mg/kg, po after 1.5 hrs; assay type: ADME, organism-based; set-up: dose 3 mg/kg, route oral
[8] = Bioavailability in Wistar rat at 3 mg/kg, po; assay type: ADME, organism-based; conditions: in vivo
[9] = Bioavailability in Beagle dog at 3 mg/kg, po; assay type: ADME, organism-based, Canis lupus familiaris; conditions: in vivo
[10] = Half life in Wistar rat plasma at 2.7 mg/kg, iv; assay type: ADME, organism-based; set-up: dose 2.7 mg/kg, route intravenous
[11] = molecular target: T2, Peroxisome proliferator-activated receptor delta (Homo sapiens, UniProt Q03181)
T2 sequence (Q03181 whole entry): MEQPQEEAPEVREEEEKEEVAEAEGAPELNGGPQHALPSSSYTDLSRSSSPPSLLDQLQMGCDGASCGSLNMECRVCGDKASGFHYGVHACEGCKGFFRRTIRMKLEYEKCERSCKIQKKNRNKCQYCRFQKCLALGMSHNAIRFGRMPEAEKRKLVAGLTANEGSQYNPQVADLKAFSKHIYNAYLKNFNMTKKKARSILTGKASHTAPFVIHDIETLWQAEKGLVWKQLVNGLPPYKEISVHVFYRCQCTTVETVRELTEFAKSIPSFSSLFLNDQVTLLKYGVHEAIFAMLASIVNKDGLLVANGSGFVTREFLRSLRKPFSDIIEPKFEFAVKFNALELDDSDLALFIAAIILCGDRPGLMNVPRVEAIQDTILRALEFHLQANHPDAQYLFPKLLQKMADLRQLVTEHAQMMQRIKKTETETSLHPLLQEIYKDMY
Description: Agonist potency at PPARdelta in CV1 cells by cell based transient transfection assay

Mus musculus [12] = test: Decrease in LDL cholesterol level in human Apo-A-I transgenic C57BL/6 mouse at 1 mg/kg, po; assay type: functional; set-up: scale not given: the % may be the effect or the level left

## Cc1nc(-c2ccc(C(F)(F)F)cc2)sc1C(=O)NCc1ccc(OC(C)(C)C(=O)O)cc1 [GW590735]
Mus musculus [1]
  Activity: 43%
Mus musculus [2]
  Activity: 61%
Canis familiaris
  Cp: 1449 ng/mL
Mus musculus [3]
  Activity: 48%
[4]
  EC50: > 10 µM
Mus musculus [5]
  Activity: 51%
Mus musculus [6]
  Activity: 86%
[7]
  concentration at 1.5 h: 1460 ng/mL
[8]
  bioavailability: 47%
[9]
  bioavailability: 85%
[10]
  half-life: 144 min
[11]
  EC50: 2830 nM
Mus musculus [12]
  Activity: 65%
